The results in this text go back to US9521845B2, “Beta-lactones as antibacterial agents” (LUDWIG-MAXIMILIANS-UNIVERSITÄT-MÜNCHEN, priority 2008, dated 2016).

Each structure is given as a SMILES string.

One assay deals with bacterial proteomes. The assay is described as follows: ABPP labeling of bacterial proteomes, labeling profile. Type of assay: binding. The settings on record: 50 μM probe. An excerpt: The library of beta-lactones to be tested comprised compounds with aliphatic or aromatic substitutions varying in length and branching. To evaluate the target selectivity, the beta-lactones were screened against several gram-positive and gram-negative bacterial proteomes including Pseudomonas putida, Listeria welshimeri, Bacillus licheniformis, Bacillus subtilis and Escherichia coli, which are phylogenetically related to pathogenic strains. In addition, mouse liver cytosol was included as an eukaryotic reference proteome. Initial labeling experiments were carried out by adding individual probes at 50 μM concentration to the proteome which is sufficient to achieve full saturation of most targets. […] As an example, labeling of L. welshimeri cytosolic and membrane proteomes as well as B. subtilis cytosolic proteome with a subset of the most complementary probes is shown in FIGS. 9A and 9B. […] Most of the targeted proteins were of low abundance as shown by the direct comparison of the relative intensities observed with Coomassie staining vs. fluorescence scanning (FIG. 11).
(§1) Proteome samples were adjusted to a final concentration of 1 mg protein/mL by dilution in PBS prior to probe labeling. Experiments for visualization by 1D SDS-PAGE were carried out in 43 μL total volume and those for affinity enrichment in 1892 μL total volume, such that once CC reagents were added, the total reaction volume was 50 μL and 2 mL, respectively. Reactions were initiated by addition of the probe and allowed to incubate for 60 min at room temperature. For heat controls the proteome was denatured with 1 μL of 43% SDS at 95° C. for 6 min and cooled to room temperature before the probe was applied. Following incubation, reporter tagged-azide reagents (13 μM rhodamine-azide for analytical or 20 μM rhodamine-biotin-azide for preparative scale) were added followed by 1 mM TCEP and 100 μM ligand. Samples were gently vortexed and the cycloaddition initiated by the addition of 1 mM CuSO4. The reactions were incubated at room temperature for 1 h (Speers, J. Amer. Chem. Soc. 125 (2003), 4686).

The target of the next assay is T1, ClpP (Listeria monocytogenes serovar 1/2a, UniProt Q9RQI6).
T1 construct: endogenous in cells; host or cells: living Listeria monocytogenes EGDe, stationary phase
T1 sequence (Q9RQI6 whole entry): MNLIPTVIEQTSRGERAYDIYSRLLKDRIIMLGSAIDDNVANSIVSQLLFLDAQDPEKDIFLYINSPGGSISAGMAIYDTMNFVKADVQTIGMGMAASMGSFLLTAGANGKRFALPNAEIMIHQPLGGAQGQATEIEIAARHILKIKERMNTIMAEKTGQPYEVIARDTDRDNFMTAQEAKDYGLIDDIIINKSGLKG
In words: In vivo labeling of Listeria proteomes. Format: cell-based. The settings on record: living L. monocytogenes EGDe, cytosol, 2 h incubation. How it is done: For analytical and preparative in vivo studies, Listeria were grown to stationary phase and harvested by centrifugation at 4,000 rpm 1 h after entrance in the stationary phase (1.5 ml for analytical and 15 ml for preparative studies). The cell pellets were washed once with PBS and resuspended in 100 μL and 500 μL PBS for analytical and preparative studies, respectively. The cell suspensions were incubated for 2 h with varying concentrations of probe at room temperature. Probes were applied from DMSO stocks whereby DMSO never exceeded 2% in the final solution. For preparative experiments, 50 μM of the probes was added to the cells resuspended in PBS. After incubation, the cells were washed thoroughly three times with PBS to remove excess probe from the supernatant. Subsequently the cells were lysed in 100 μL (500 μL) PBS by sonication with a Bandelin Sonopuls with 3×20 sec. pulsed at 70% max. power. For analytical experiments 44 μL proteome were used to append a reporter tag via CC, such that once CC reagents were added, the total reaction volume was 50 μL. In preparative purposes the total volume of 500 μL it was consumed per experiment. Reporter tagged-azide reagents (13 μM rhodamine-azide for analytical or 20 μM rhodamine-biotin-azide for preparative scale) were added followed by 1 mM TCEP and 100 μM ligand. Samples were gently vortexed and the cycloaddition initiated by the addition of 1 mM CuSO4. The reactions were incubated at room temperature for 1 h. For analytical gel electrophoresis, 50 μL 2×SDS loading buffer were added and 50 μL applied on the gel. Fluorescence was recorded in a Fujifilm Las-3000 Fluoreszenz Darkbox with a Fujinon VRF 43LMD Lens, 605DF40 filter and 520 nm EPI excitation wavelength.

The subject of assay [1] is LLO haemolytic activity of L. monocytogenes EGDe. The assay is described as follows: LLO haemolytic activity testing of culture supernatants. Type of assay: cell-based, Listeria monocytogenes EGDe. How it is done: Overnight cultures of L. monocytogenes EGDe were harvested by centrifugation and resuspended in an equal volume of fresh BHB medium. In 1.5 mL Eppendorf tubes, 400 μL of BHB medium were inoculated with 4 μL of the resuspended Listeria culture and 4 μL of a corresponding beta-lactone stock in DMSO. The final concentrations were 800 μM, 400 μM, 200 μM, 100 μM and DMSO as control. The amount of DMSO in all tests was 1% of the medium. After mixing, the test tubes were incubated under continuous shaking at 200 rpm at 37° C. for 16 h. Then, cells were centrifuged and the supernatants filtered sterile by passing them through a 0.2 μm pore size filter. Haemolytic activity of LLO in the culture supernatants was quantitatively investigated according to a method described in J. Food Safety 1998, 18: 197-203 (incorporated herein by reference) with some modifications. In Nunclon™ 96-well plates with round shaped wells 100 μL of serial dilutions of the supernatants in PBS were added per well and incubated with 100 μL of 3% SRBC (sheep red blood cells) resuspended in PBS for 15 min at 37° C. under gentle shaking. The 96-well plates were centrifuged at 600 rpm for 5 min and the minimum dilution at which intact blood cells began to form a pellet was recorded. Controls with no lactone were set 100%. Buffer only controls and pure BHB medium yielded no haemolysis.

For assay [2], the system named is lipase/acylhydrolase (LipAc). In words: ABPP probe dose down in proteome, lipase/acylhydrolase labeling. Format: binding. The settings on record: L. welshimeri proteome, concentration range 10 μM to 5 nM. The protocol: To estimate the strength of probe interactions with proteins in the proteome, we compared the reactivity profiles of selected beta-lactones across a broad concentration range from 10 μM to 5 nM.
as §1

Assay [3] relates to haemolysis abilities of Staphylococcus aureus. In words: Blood agar plate-based haemolysis assay. Format: cell-based. The settings on record: total amount of 250 nmol applied on Whatman Cards, 5% sheep blood agar, 37° C. over night. The protocol: FIG. 3: Blood agar plate-based assay illustrating that beta-lactones have an effect on the haemolysis abilities of Staphylococcus aureus. 2.5 μL of S. aureus LB dilution (OD600=0.13 corresponding to approx. 1×10^8 cfu/ml) and 2.5 μL DMSO/lactone in DMSO were applied on Whatman Cards placed on 5% sheep blood agar plates (Heipha Diagnostika, Eppelheim, Germany) and incubated at 37° C. over night. A) Direct comparison of beta-lactones as shown in FIG. 2 at a total amount of 250 nmol applied on Whatman Cards. B) Dose down with beta-lactone compounds D3, E2 and G2 at applied concentrations of 100 mM, 50 mM, 25 mM, 12.5 mM, 6.25 mM and 0 mM (corresponding to total amounts of 250 nmol, 125 nmol, 62.5 nmol, 31.3 nmol, 15.6 nmol and 0 nmol, respectively).
2.5 μl, of S. aureus LB dilution (OD600 0.13 corresponding to approx. 1×10^8 cfu/ml) and 2.5 μL DMSO/beta-lactone in DMSO were applied on Whatman Cards placed on 5% sheep blood agar plates (Heipha Diagnostika, Eppelheim, Germany) and incubated at 37° C. over night. FIG. 3A directly compares the β-lactones at a total amount of 250 nmol applied on Whatman Cards. […] For D3 almost no haemolysis is observed down to a total amount of 125 nmol lactone. FIG. 5 illustrates the haemolytic activity of beta-lactone compounds D3, E2 and G2 plotted against the total amount of the respective beta-lactone, whereby a haemolysis zone size of 1.5 mm was set as 100% haemolytic activity. The data shown in FIG. 5 has been corroborated by further experimental testing.
Haemolysis was tested on blood agar plates (5% sheep blood; Heipha Diagnostika, Eppelheim, Germany). Sterile circles of Whatman cards (No. Y) with 5 mm diameter were placed on agar plates and inoculated with 2.5 μL of the corresponding beta-lactone/DMSO and 2.5 μL stationary phase culture of S. aureus diluted to […]. The plates were incubated over night at 37° C. and the diameters of the zones around the bacterial colonies were precisely measured using a vernier caliper.

Assay [4] concerns proteolysis abilities of Staphylococcus aureus. In words: Milk agar plate-based proteolysis assay. Format: cell-based. The settings on record: for proteolytic activity of S. aureus: total amount of 250 nmol applied on Whatman Cards, 1% skim milk LB agar, 37° C. over night. How it is done:
FIG. 6: Milk agar plate-based assay illustrating that beta-lactones have an effect on the proteolysis abilities of Staphylococcus aureus. 2.5 μL of S. aureus LB dilution (OD600=0.13 corresponding to approx. 1×10^8 cfu/ml) and 2.5 μL DMSO/beta-lactone in DMSO were applied on Whatman Cards placed on 1% skim milk LB agar plates and incubated at 37° C. over night. A) Direct comparison of beta-lactones as shown in FIG. 2 at a total amount of 250 nmol applied on Whatman Cards. B) Dose down with beta-lactones D3, E2 and G2 at applied concentrations of 100 mM, 50 mM, 25 mM, 12.5 mM, 6.25 mM and 0 mM (corresponding to total amounts of 250 nmol, 125 nmol, 62.5 nmol, 31.3 nmol, 15.6 nmol and 0 nmol, respectively). C) Proteolysis zone size plotted against the total amount of the respective beta-lactone.
2.5 μL of S. aureus LB dilution (OD600=0.13 corresponding to approx. 1×10^8 cfu/ml) and 2.5 μL DMSO/beta-lactone in DMSO were applied on Whatman Cards placed on 1% skim milk LB agar plates and incubated at 37° C. over night. FIG. 6A directly compares the β-lactones at a total amount of 250 nmol applied on Whatman Cards. […] For D3 and E2 almost no proteolysis is observed down to a total amount of 125 nmol of the respective beta-lactone. FIG. 6C illustrates that the proteolysis zone size plotted against the total amount of beta-lactone visualizes the strong effects particularly of D3 and E2.

In another assay the test system is serine proteases. The assay is described as follows: Competitive labeling with PMSF. Type of assay: binding. The settings on record: 100 fold excess, 15 min prior to beta-lactone probes. The protocol:
(§2) FIG. 13: Active site competition assays and IC50. A) Competition experiment with KAS II with and without 100 fold excess of cerulenin in presence of the beta-lactone probe G2. B) Competition experiments with several serine proteases with and without 100 fold excess of PMSF in presence of the corresponding beta-lactone probes (LWC: L. welshimeri cytosol, LWM: L. welshimeri membrane, BSC: B. subtilis cytosol). C) IC50 of 5 μM for SFGH. For a list of abbreviations, please refer to Example 6, Table 1. The term PNB is also referred to herein as PNBE.
(§3) In competitive assays, a 100 fold excess of PMSF or cerulenin was added to the proteome 15 min prior to beta-lactone addition.

Another assay deals with KAS II. The assay is described as follows: Competitive labeling with cerulenin. Type of assay: binding. The settings on record: 100 fold excess, 15 min prior to beta-lactone probe G2. How it is done: as §2, §3

With `C#CCCC[C@H]1OC(=O)[C@H]1C(C)(C)C` (relative stereo) [L1, cis-3-dimethylethyl-4-(4-pentyn-1-yl)oxetan-2-one], the “enzyme labeling in proteomes” value with bacterial proteomes was “decreased the number of specific labeling events”.
`C#CCCC[C@@H]1OC(=O)[C@H]1CCCCCCCC(=O)Sc1ccccc1` (relative stereo) [N1, trans-S-phenyl 8-(2-oxo-4-(4-pentyn-1-yl)oxetan-3-yl)octanethioate]: the “ClpP labeling (probe potency ranking)” value on ClpP is “most potent probes”. Moreover, the EC50 in assay [1] (Listeria monocytogenes, Erythrocyte, cultures grown 16 h with lactone, sheep red blood cells, read-out: EC50 of reduction of LLO haemolytic activity) was < 100 µM.
As to `C#CCCC[C@@H]1OC(=O)[C@H]1c1ccc2ccccc2c1` (relative stereo) [P1, trans-3-(2-naphthyl)-4-(4-pentyn-1-yl)oxetan-2-one, reference compound], the “probe concentration down to which LipAc is labeled” value in assay [2] is reported as 160 nM.
As to `C#CCCCC1CC(=O)O1` (stereo not shown) [A1, 4-(4-Pentyn-1-yl)oxetan-2-one], the “enzyme labeling in proteomes” value in the assay with bacterial proteomes was “poor in enzyme labeling”.
On to `C#CCCCC1OC(=O)C1c1ccc(OC)cc1` (stereo not drawn) [E2, trans-3-(4-methoxyphenyl)-4-(4-pentyn-1-yl)oxetan-2-one], for which the “haemolytic activity of S. aureus” value in assay [3] was “strongly reduce”. Also, the “total amount down to which almost no proteolysis is observed” value in assay [4] (dose down 250-15.6 nmol) came to 125 nmol. Further, in assay [4], the “proteolytic activity of S. aureus” value was “strongly reduce”.
Consider `C#CCCCC1OC(=O)C1(C)C` (stereo not drawn) [M1, trans-3,3-dimethyl-4-(4-pentyn-1-yl)oxetan-2-one, reference compound], for which the “ClpP labeling (probe potency ranking)” value at ClpP is “did not label and inhibit ClpP”. Also, the “haemolytic activity of S. aureus” value in assay [3] is listed as “no effect”. For the same molecule, the effect on haemolysis entry in assay [1] (control probe) was “no effect”. The “lysis of blood cells by culture supernatant” value in assay [1] (fourfold dilution of supernatant, even at 800 μM) is on record as “complete lysis”. For the same molecule, in assay [4], the “proteolytic activity of S. aureus” value was “no effect”.
Regarding `C#CCCCC1OC(=O)C12CCCCC2` (stereo not shown) [O1, 4-(4-pentyn-1-yl)oxetan-2-one-3-spirocyclohexane], the “enzyme labeling in proteomes” value in the assay on bacterial proteomes is listed as “decreased the number of specific labeling events”.
On to `O=S(=O)(F)Cc1ccccc1` [PMSF], for which the “effect of pre-incubation on probe labeling of serine proteases” value in the assay with serine proteases is “prevented subsequent probe labeling”.
Consider `C/C=C/C/C=C/CCC(=O)[C@H]1O[C@H]1C(N)=O` [cerulenin], for which the “effect of pre-incubation on probe labeling of KAS II” value in the assay on KAS II was “prevented subsequent probe labeling”.
